In patent US20230129364A1, “PYRROLIDINE DERIVATIVE, AND PHARMACEUTICAL COMPOSITION FOR PREVENTING OR TREATING BETA-AMYLOID OR TAU PROTEIN-ASSOCIATED DISEASES CONTAINING SAME” (YONSEI UNIVERSITY, UNIVERSITY - INDUSTRY FOUNDATION (UIF), priority 2019, published 2023):

Key:
[1] = molecular target: T1, pathological (P301S) tau (Homo sapiens, UniProt P10636, P618S); test: SPR binding affinity of tau PROTAC to P301S tau; conditions: CM5 sensor chip, concentration-dependent kinetic assay, read-out: binding affinity (Ka) to the P301S tau
T1 construct: made in house; host or cells: Star pLysS cells (E. coli), pRSET-B vector, IPTG induction
Experimental: (§1) The following experiment was performed to verify that the compound according to the present invention selectively degrades only phosphorylated tau. In order to biophysically analyze selective binding of the tau PROTAC to P301S, which is known as a representative mutant of pathological tau, non-pathological (WT) tau and pathological (P301S) tau were cloned into pRSET-B vectors to obtain plasmids. Star pLysS cells were used to overexpress proteins and 1 mM IPTG was added to the medium at an OD600 of 0.4 to 0.6. The intracellular proteins were extracted from the cells lysed in a lysis buffer through heat shock (95° C.), and WT tau and P301S tau were obtained at a high purity (>95%) using cation exchange chromatography and size exclusion chromatography.
(§2) Whether or not the obtained proteins bound to the tau PROTAC was determined through an SPR experiment. A CM5 sensor chip including dextran attached thereto was used, tau PROTAC was allowed to flow and the binding affinity between the protein and the compound was determined based on a response unit (RU). The binding affinity (Ka) to the protein was measured using concentration-dependent kinetic assay. The results of measurement of binding affinity between the tau PROTAC compound and non-pathological WT Tau or pathological P301S tau are shown in FIG. 2. […]

[2] = molecular target: T2, P-Tau AT8 (S202, T205) (Homo sapiens, UniProt P10636, P618L); test: Phosphorylated tau degradation in HEK293T P301L mutant cell line, Western blot, P-Tau AT8; type: cell-based; conditions: 72 hours, HEK293T P301L cells, Western blot quantified with Image J
T2 construct: host or cells: HEK293T
Excerpt: (§3) Specifically, the pRK5-EGFP-Tau P301L vector from Addgene (Addgene, MA, USA) was purchased and used in order to stably express P301L, which is a known representative mutation of pathological tau, in HEK293T cells. The P301L vector was inserted into HEK293T cells using a FuGENE HD transfection reagent (Promega, WI, USA) and then stabilized. The cells were removed therefrom and then only the cells into which the vector was inserted were isolated using a fluorescence-activated cell sorter (BD FACS Aria III, BD Bioscience, NJ, USA). After the isolated cells were incubated for 2 to 3 days, they were removed again and separated and cultured using a FACS twice to finally obtain a HEK293T P301 mutant cell line.
(§4) The obtained cells were seeded in each well of a 6-well plate and stabilized for 18 hours, and then each well was treated with the compound of Example 1 such that the final concentration reached 1 or 10 μM. The control group was treated with the same concentration (0.01%) of DMSO used as the solvent of the compound of Example. 72 hours later, the protein was extracted with a lysis buffer and quantified, and then Western blot was performed. A protein sample was electrophoresed on a 4-20% mini-PROTEIN TGX precast protein gel (Bio-Rad, CA, USA) and transferred to a PVDF membrane (Immobilon-P, Merck, Darmstadt, Germany). The primary antibodies used herein were P-Tau AT8 (#MN1020), P-Tau S396 (#44-752G), and P-Tau S356 (#44-751G) from ThermoFisher scientific (MA, USA), and GAPDH (SC-47724) from SANTA CRUZ Biotechnology (TX, USA). The secondary antibody used herein was rabbit/mouse IgG from GeneTex (CA, USA). The image obtained through ImageQuant LAS 4000 (GE healthcare, IL, USA) and the result of quantification using an Image J program are shown in FIG. 1.

[3] = molecular target: T3, P-Tau (S356) (Homo sapiens, UniProt P10636, P618L); test: Phosphorylated tau degradation in HEK293T P301L mutant cell line, Western blot, P-Tau S356; type: cell-based; conditions: 72 hours, HEK293T P301L cells, Western blot quantified with Image J
T3 construct: host or cells: HEK293T
Excerpt: as §3, §4

[4] = molecular target: T4, non-pathological (WT) tau (Homo sapiens, UniProt P10636); test: SPR binding affinity of tau PROTAC to WT tau; conditions: CM5 sensor chip, concentration-dependent kinetic assay, nonpathological WT tau, read-out: binding affinity (Ka) to tau
T4 construct: made in house; host or cells: Star pLysS cells (E. coli), pRSET-B vector, IPTG induction
Experimental: as §1, §2

[5] = molecular target: T5, P-Tau (S396) (Homo sapiens, UniProt P10636, P618L); test: Phosphorylated tau degradation in HEK293T P301L mutant cell line, Western blot, P-Tau S396; type: cell-based; conditions: 72 hours, HEK293T P301L cells, Western blot quantified with Image J
T5 construct: host or cells: HEK293T
Excerpt: as §3, §4

T3 sequence (P10636 1-383 isoform P10636-6 P243L): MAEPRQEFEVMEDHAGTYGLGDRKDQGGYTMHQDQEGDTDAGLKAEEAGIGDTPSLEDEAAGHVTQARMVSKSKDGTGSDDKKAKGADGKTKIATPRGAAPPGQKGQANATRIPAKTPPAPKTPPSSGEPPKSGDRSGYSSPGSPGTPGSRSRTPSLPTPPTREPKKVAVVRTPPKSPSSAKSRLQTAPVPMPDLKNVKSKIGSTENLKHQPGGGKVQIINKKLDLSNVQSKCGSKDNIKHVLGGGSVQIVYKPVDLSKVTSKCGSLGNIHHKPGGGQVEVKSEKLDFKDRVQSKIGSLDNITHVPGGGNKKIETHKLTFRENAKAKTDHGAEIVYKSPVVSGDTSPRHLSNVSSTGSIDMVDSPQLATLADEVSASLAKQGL
T5 sequence (P10636 1-383 isoform P10636-6 P243L): as above
T2 sequence (P10636 1-383 isoform P10636-6 P243L): as above
T1 sequence (P10636 1-441 isoform P10636-8 P301S): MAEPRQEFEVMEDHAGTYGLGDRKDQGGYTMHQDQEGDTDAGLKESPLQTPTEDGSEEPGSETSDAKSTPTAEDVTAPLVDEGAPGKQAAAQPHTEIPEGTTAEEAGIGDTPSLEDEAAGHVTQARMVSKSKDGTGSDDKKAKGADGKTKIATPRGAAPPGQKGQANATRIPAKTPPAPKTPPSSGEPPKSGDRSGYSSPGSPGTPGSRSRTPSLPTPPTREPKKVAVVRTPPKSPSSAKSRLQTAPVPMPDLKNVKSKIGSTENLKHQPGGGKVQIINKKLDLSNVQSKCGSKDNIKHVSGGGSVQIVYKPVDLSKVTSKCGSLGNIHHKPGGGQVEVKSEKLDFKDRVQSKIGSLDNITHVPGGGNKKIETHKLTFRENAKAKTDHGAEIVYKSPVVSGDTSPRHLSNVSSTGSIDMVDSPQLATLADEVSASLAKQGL
T4 sequence (P10636 1-441 isoform P10636-8): as the sequence (P10636 1-441 isoform P10636-8 P301S) above, with S301P counted along it

Kd [1] [µM]	degradation activity compared to the control group, P-Tau AT8 (S202, T205) ([2]; 10 μM) [%]	phosphorylated tau degradation activity, P-Tau (S356) ([3]; 10 μM) [%]	Kd [4] [µM]	degradation activity, P-Tau (S396) ([5]; 1 μM) [%]	degradation activity, P-Tau (S396) ([5]; 10 μM) [%]	degradation activity compared to the control group, P-Tau AT8 (S202, T205) ([2]; 1 μM) [%]	phosphorylated tau degradation activity, P-Tau (S356) ([3]; 1 μM) [%]	Structure (SMILES)
42	26	81	190	67	67			CCN1C(=O)/C(=C/c2cn(Cc3cn(CCOCCOCCOCC(=O)Nc4cccc5c4C(=O)N(C4CCC(=O)NC4=O)C5=O)nn3)c3cccnc23)NC1=S (stereo not shown) [TAU-1 PROTAC, (Z)—N-(2-(2,6-dioxopiperidin-3-yl)-1,3-dioxoisoindolin-4-yl)-2-(2-(2-(2-(4-((3-((1-ethyl-5-oxo-2-thioxoimidazolidin-4-ylidene)methyl)-1H-pyrrolo[3,2-b]pyridin-1-yl)methyl)-1H-1,2,3-triazol-1-yl)ethoxy)ethoxy)ethoxy)acetamide]
18.7	53	80	199	30		59	62	CCN1C(=O)/C(=C/c2cn(Cc3cn(CCOCCOCC(=O)Nc4cccc5c4C(=O)N(C4CCC(=O)NC4=O)C5=O)nn3)c3ccccc23)NC1=S (stereo not shown) [TAU-2 PROTAC, (Z)—N-(2-(2,6-dioxopiperidin-3-yl)-1,3-dioxoisoindolin-4-yl)-2-(2-(2-(4-((3-((1-ethyl-5-oxo-2-thioxoimidazolidin-4-ylidene)methyl)-1H-indol-1-yl)methyl)-1H-1,2,3-triazol-1-yl)ethoxy)ethoxy)acetamide]
